Paper PMC5515969, “Effects of 31 FDA approved small-molecule kinase inhibitors on isolated rat liver mitochondria” (Archives of Toxicology, 2016)

Assays:
[1] = system: isolated rat liver mitochondria; assay: Mitochondrial oxygen consumption (glutamate/malate or succinate driven, state 4 and state 3); type: biochemical; details: DMSO treated samples set as 1; for State 3 respiration driven by succinate at 10XCmax: key: 0 indicates that the drug had no effects (negative); for State 3 respiration driven by succinate at 1XCmax: key: 0 indicates that the drug had no effects (negative)
How it was run: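 Oxygen uptake on glutamate/malate or on succinate defined state 4; ADP added 3 min later gave state 3. Mitochondria isolated from rat liver by differential centrifugation, adjusted to 1 mg/ml and pretreated 5 min with inhibitor (0.1% DMSO final). Values relative to DMSO control, set to 1.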

RCC I = RCC I activity in submitochondrial particles; type: biochemical, rat; parameters: key to RCC I at 10XCmax / RCC I at 100XCmax / RCC I at 50XCmax / RCC I at 30XCmax / RCC I at 20XCmax: activity relative to DMSO-treated controls (control set as 1 = 100%); details: 10XCmax; relative to DMSO treated samples
How it was run: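 First, submitochondrial particles (1 mg/ml) are incubated with inhibitor for 15 min. Next, complex activities are followed spectrophotometrically, with RCC I taken as the difference between buffers lacking and containing rotenone. Finally, activities are expressed relative to DMSO controls set at 1.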

RCC II = target: T1, RCC II (Rattus norvegicus, UniProt P21913+Q641Z9+Q6PCT8+Q920L2); assay: RCC II activity in submitochondrial particles; type: biochemical; parameters: key: activity relative to DMSO-treated controls (control set as 1 = 100%); details: relative to DMSO treated samples
T1 construct: Submitochondrial particles were prepared by subjecting the intact mitochondria to three successive freeze–thaw cycles; from tissue; host or cells: rat liver mitochondria, used as submitochondrial particles
How it was run: (§1)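 Abs 340 nm (I/V) or 600 nm (II), 1-min reads × 6 min; 550 nm (III, IV), 10-s reads × 2 min. RCC I = rotenone-free minus rotenone rate. DMSO control = 1.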

RCC III = RCC III activity in submitochondrial particles; type: biochemical, rat; parameters: key to RCC III at 100XCmax: activity relative to DMSO-treated controls (control set as 1 = 100%); details: 100XCmax; relative to DMSO treated samples
How it was run: as §1

RCC IV = RCC IV activity in submitochondrial particles; type: biochemical, rat; parameters: key to RCC IV at 50XCmax / RCC IV at 100XCmax: activity relative to DMSO-treated controls (control set as 1 = 100%); details: 50XCmax; relative to DMSO treated samples; in %
How it was run: as §1

RCC V = RCC V activity in submitochondrial particles; type: biochemical, rat; details: relative to DMSO treated samples; for RCC V at 5XCmax: key: 0 indicates that the drug had no effects (negative)
How it was run: as §1

[2] = system: isolated rat liver mitochondria; assay: Mitochondrial inner membrane potential (MMP), Rhodamine 123; type: biochemical; details: difference in signal between KI and DMSO treated samples at the end of experiments
Excerpt: Fig. 3 KI effects on mitochondrial inner membrane potential (MMP). […] In a, c, data are means and standard derivations from three separate experiments. *p < 0.05 as compared to DMSO-treated samples at the end of experiments. In b, data are means of two independent experiments

[3] = system: isolated rat liver mitochondria; assay: Mitochondrial swelling (absorbance at 535 nm); type: biochemical; details: difference in signal between KI and DMSO treated samples at the end of experiments; for Swelling 5XCmax: key: 0 indicates that the drug had no effects (negative)
[4] = 1 = DILI positive, 0 = negative; ref product labeling; cited from earlier work
[5] = system: isolated rat liver mitochondria; assay: Mitochondrial ROS production (CM-H2DCFDA); details: DMSO treated samples set as 1

T1 sequence (Q920L2 35-656): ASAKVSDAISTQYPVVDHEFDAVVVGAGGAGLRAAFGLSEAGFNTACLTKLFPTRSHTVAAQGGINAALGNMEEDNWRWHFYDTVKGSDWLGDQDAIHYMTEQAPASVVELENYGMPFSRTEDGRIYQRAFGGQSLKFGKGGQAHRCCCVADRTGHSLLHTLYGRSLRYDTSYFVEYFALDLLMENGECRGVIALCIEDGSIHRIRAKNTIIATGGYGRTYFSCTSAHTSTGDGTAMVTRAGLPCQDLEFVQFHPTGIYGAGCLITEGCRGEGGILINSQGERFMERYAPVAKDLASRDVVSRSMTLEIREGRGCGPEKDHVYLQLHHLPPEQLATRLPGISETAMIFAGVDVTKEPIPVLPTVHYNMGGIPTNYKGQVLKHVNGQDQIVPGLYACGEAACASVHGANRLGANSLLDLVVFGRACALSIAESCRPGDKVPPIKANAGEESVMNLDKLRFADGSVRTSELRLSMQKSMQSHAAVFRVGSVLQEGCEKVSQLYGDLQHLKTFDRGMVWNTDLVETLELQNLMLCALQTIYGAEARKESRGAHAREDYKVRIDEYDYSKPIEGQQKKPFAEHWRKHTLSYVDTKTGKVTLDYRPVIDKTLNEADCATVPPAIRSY
T1 sequence (P21913 31-282): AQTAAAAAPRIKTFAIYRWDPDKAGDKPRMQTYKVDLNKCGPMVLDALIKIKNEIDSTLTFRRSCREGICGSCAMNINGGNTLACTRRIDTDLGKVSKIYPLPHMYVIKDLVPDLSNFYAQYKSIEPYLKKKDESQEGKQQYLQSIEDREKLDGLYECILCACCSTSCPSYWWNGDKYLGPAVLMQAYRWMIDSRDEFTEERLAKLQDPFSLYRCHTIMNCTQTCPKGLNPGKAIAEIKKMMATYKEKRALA
T1 sequence (Q641Z9 1-169): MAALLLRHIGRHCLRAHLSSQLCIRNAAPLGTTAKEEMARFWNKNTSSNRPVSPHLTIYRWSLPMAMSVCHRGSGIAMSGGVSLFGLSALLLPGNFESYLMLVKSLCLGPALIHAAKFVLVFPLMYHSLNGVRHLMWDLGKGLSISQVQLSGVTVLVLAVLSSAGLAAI
T1 sequence (Q6PCT8 57-159): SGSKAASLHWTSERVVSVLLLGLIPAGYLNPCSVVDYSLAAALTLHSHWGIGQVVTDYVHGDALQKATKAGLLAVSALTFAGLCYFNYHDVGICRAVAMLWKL

Cc1nc(Nc2ncc(C(=O)Nc3c(C)cccc3Cl)s2)cc(N2CCN(CCO)CC2)n1 [dasatinib (free base)]
0: State 3 respiration driven by glutamate/malate at 1XCmax ([1]; 1XCmax) | State 3 respiration driven by succinate at 1XCmax ([1]; 1XCmax) | State 4 respiration driven by glutamate/malate at 1XCmax ([1]; 1XCmax) | State 4 respiration driven by succinate at 1XCmax ([1]; 1XCmax) | State 3 respiration driven by glutamate/malate at 2.5XCmax ([1]; 2.5XCmax) | State 3 respiration driven by succinate at 2.5XCmax ([1]; 2.5XCmax) | State 4 respiration driven by glutamate/malate at 2.5XCmax ([1]; 2.5XCmax) | State 4 respiration driven by succinate at 2.5XCmax ([1]; 2.5XCmax) | State 3 respiration driven by glutamate/malate at 5XCmax ([1]; 5XCmax) | State 3 respiration driven by succinate at 5XCmax ([1]; 5XCmax) | State 4 respiration driven by glutamate/malate at 5XCmax ([1]; 5XCmax) | State 4 respiration driven by succinate at 5XCmax ([1]; 5XCmax) | State 3 respiration driven by glutamate/malate at 10XCmax ([1]; 10XCmax) | State 3 respiration driven by succinate at 10XCmax ([1]; 10XCmax) | State 4 respiration driven by glutamate/malate at 10XCmax ([1]; 10XCmax) | State 4 respiration driven by succinate at 10XCmax ([1]; 10XCmax) | State 3 respiration driven by glutamate/malate at 20XCmax ([1]; 20XCmax) | State 3 respiration driven by succinate at 20XCmax ([1]; 20XCmax) | State 4 respiration driven by glutamate/malate at 20XCmax ([1]; 20XCmax) | State 4 respiration driven by succinate at 20XCmax ([1]; 20XCmax) | State 3 respiration driven by glutamate/malate at 30XCmax ([1]; 30XCmax) | State 3 respiration driven by succinate at 30XCmax ([1]; 30XCmax) | State 4 respiration driven by glutamate/malate at 30XCmax ([1]; 30XCmax) | State 4 respiration driven by succinate at 30XCmax ([1]; 30XCmax) | State 3 respiration driven by glutamate/malate at 50XCmax ([1]; 50XCmax) | State 3 respiration driven by succinate at 50XCmax ([1]; 50XCmax) | State 4 respiration driven by glutamate/malate at 50XCmax ([1]; 50XCmax) | State 4 respiration driven by succinate at 50XCmax ([1]; 50XCmax) | State 3 respiration driven by glutamate/malate at 100XCmax ([1]; 100XCmax) | State 3 respiration driven by succinate at 100XCmax ([1]; 100XCmax) | State 4 respiration driven by glutamate/malate at 100XCmax ([1]; 100XCmax) | State 4 respiration driven by succinate at 100XCmax ([1]; 100XCmax) | RCC I at 10XCmax (RCC I) | RCC II at 1.0XCmax (RCC II; 1.0XCmax) | RCC II at 2.5XCmax (RCC II; 2.5XCmax) | RCC II at 5XCmax (RCC II; 5XCmax) | RCC II at 10XCmax (RCC II; 10XCmax) | RCC II at 20XCmax (RCC II; 20XCmax) | RCC II at 30XCmax (RCC II; 30XCmax) | RCC II at 50XCmax (RCC II; 50XCmax) | RCC II at 100XCmax (RCC II; 100XCmax) | RCC III at 100XCmax (RCC III) | RCC IV at 50XCmax (RCC IV) | RCC V at 5XCmax (RCC V; 5XCmax) | RCC V at 50XCmax (RCC V; 50XCmax) | MMP measured by Rhodamine 123 at 1XCmax ([2]; 1XCmax) | MMP measured by Rhodamine 123 at 2.5XCmax ([2]; 2.5XCmax) | MMP measured by Rhodamine 123 at 5XCmax ([2]; 5XCmax) | MMP measured by Rhodamine 123 at 10XCmax ([2]; 10XCmax) | MMP measured by Rhodamine 123 at 20XCmax ([2]; 20XCmax) | MMP measured by Rhodamine 123 at 30XCmax ([2]; 30XCmax) | MMP measured by Rhodamine 123 at 50XCmax ([2]; 50XCmax) | MMP measured by Rhodamine 123 at 100XCmax ([2]; 100XCmax) | Swelling 1XCmax ([3]; 1XCmax) | Swelling 2.5XCmax ([3]; 2.5XCmax) | Swelling 5XCmax ([3]; 5XCmax) | Swelling 10XCmax ([3]; 10XCmax) | Swelling 20XCmax ([3]; 20XCmax) | Swelling 30XCmax ([3]; 30XCmax) | Swelling 50XCmax ([3]; 50XCmax) | Swelling 100XCmax ([3]; 100XCmax) | DILI potential (based on labeling) [4] | ROS measured by CM-H2DCFDA at 1XCmax ([5]; 1XCmax) | ROS measured by CM-H2DCFDA at 2.5XCmax ([5]; 2.5XCmax) | ROS measured by CM-H2DCFDA at 5XCmax ([5]; 5XCmax) | ROS measured by CM-H2DCFDA at 10XCmax ([5]; 10XCmax) | ROS measured by CM-H2DCFDA at 20XCmax ([5]; 20XCmax) | ROS measured by CM-H2DCFDA at 30XCmax ([5]; 30XCmax) | ROS measured by CM-H2DCFDA at 50XCmax ([5]; 50XCmax) | ROS measured by CM-H2DCFDA at 100XCmax ([5]; 100XCmax)
